Holding throughout (type): functional
For one experiment, the system named is Aspergillus parasiticus. As to the kind of experiment: Antimicrobial activity against Aspergillus parasiticus MTCC 2797 assessed as growth inhibition after 5 days by broth microdilution method.
Another experiment relates to Enterobacter cloacae. As to the kind of experiment: Antimicrobial activity against Enterobacter cloacae MTCC 509 assessed as growth inhibition after 24 hr by broth microdilution method.
A further experiment has as its system Aspergillus niger. As to the kind of experiment: Antimicrobial activity against Aspergillus niger MTCC 404 assessed as growth inhibition after 5 days by broth microdilution method.
The test system of experiment [1] is Radical scavenging activity. As to the kind of experiment: Antioxidant activity assessed as inhibition of DPPH radical formation at 2 mg/ml after 30 min by spectrophotometric analysis.
The next experiment concerns Burkholderia cepacia. Kind of experiment: Antimicrobial activity against Burkholderia cepacia MTCC 438 assessed as growth inhibition after 24 hr by broth microdilution method.
The next experiment deals with Trichophyton rubrum. Kind of experiment: Antimicrobial activity against Trichophyton rubrum MTCC 296 assessed as growth inhibition after 5 days by broth microdilution method.
In the next experiment the test system is Staphylococcus aureus. As to the kind of experiment: Antimicrobial activity against Staphylococcus aureus MTCC 3160 assessed as growth inhibition after 24 hr by broth microdilution method.
The next experiment has as its system Bacillus subtilis. As to the kind of experiment: Antimicrobial activity against Bacillus subtilis MTCC 121 assessed as growth inhibition after 24 hr by broth microdilution method.
A further experiment concerns Pichia kudriavzevii. As to the kind of experiment: Antimicrobial activity against Pichia kudriavzevii MTCC 231 assessed as growth inhibition after 24 hr by broth microdilution method.
In the next experiment the test system is Aspergillus sydowii. As to the kind of experiment: Antimicrobial activity against Aspergillus sydowii MTCC 4335 assessed as growth inhibition after 5 days by broth microdilution method.
The next experiment deals with Klebsiella pneumoniae. As to the kind of experiment: Antimicrobial activity against Klebsiella pneumoniae MTCC 109 assessed as growth inhibition after 24 hr by broth microdilution method.
The next experiment has as its system Candida albicans. Kind of experiment: Antimicrobial activity against Candida albicans MTCC 3017 assessed as growth inhibition after 24 hr by broth microdilution method.
For another experiment, the system named is Micrococcus luteus. Kind of experiment: Antimicrobial activity against Micrococcus luteus MTCC 2470 assessed as growth inhibition after 24 hr by broth microdilution method.
A further experiment deals with Escherichia coli. As to the kind of experiment: Antimicrobial activity against Escherichia coli MTCC 43 assessed as growth inhibition after 24 hr by broth microdilution method.
A further experiment has as its system Pseudomonas aeruginosa. Kind of experiment: Antimicrobial activity against Pseudomonas aeruginosa MTCC 424 assessed as growth inhibition after 24 hr by broth microdilution method.

In brackets after ≈: the same amount, converted by molar mass. Activity calls are given as the source filed them. No cut-off for these calls is given here.

For `CCOc1ccc2nc(/N=C/C=C/c3ccc4c(c3)OCO4)sc2c1`, the MIC in the experiment with Aspergillus parasiticus (MTCC 2797, 120 h) was 710 µM (≈ 250 µg/mL); in the experiment on Burkholderia cepacia (MTCC 438, 24 h) it was 1420 µM (≈ 500 µg/mL); with Trichophyton rubrum (MTCC 296, 120 h) it was 1420 µM (≈ 500 µg/mL); with Staphylococcus aureus (MTCC 3160, 24 h) it was 710 µM (≈ 250 µg/mL); in the experiment with Bacillus subtilis (MTCC 121, 24 h), 1420 µM (≈ 500 µg/mL); in the experiment with Pichia kudriavzevii (MTCC 231, 24 h), 1420 µM (≈ 500 µg/mL). The MIC came out at 710 µM (≈ 250 µg/mL) with Aspergillus sydowii (MTCC 4335, 120 h); 1420 µM (≈ 500 µg/mL) in the experiment on Candida albicans (MTCC 3017, 24 h); 710 µM (≈ 250 µg/mL) with Micrococcus luteus (MTCC 2470, 24 h). Besides, the MIC result in the experiment with Enterobacter cloacae, in the experiment with Aspergillus niger, in the experiment with Klebsiella pneumoniae, in the experiment on Escherichia coli and in the experiment with Pseudomonas aeruginosa was “inactive” each time. Also, the inhibition in [1] worked out at 0.24%.

As to `C(=C\c1ccc2c(c1)OCO2)/C=N/c1nccs1`, the MIC was determined as 3870 µM (≈ 1000 µg/mL) in the experiment on Aspergillus parasiticus (MTCC 2797, 120 h); 480 µM (≈ 124 µg/mL) in the experiment on Enterobacter cloacae (MTCC 509, 24 h); 3870 µM (≈ 1000 µg/mL) with Aspergillus niger (MTCC 404, 120 h); 1930 µM (≈ 499 µg/mL) in the experiment on Burkholderia cepacia (MTCC 438, 24 h); 970 µM (≈ 251 µg/mL) with Trichophyton rubrum (MTCC 296, 120 h); 480 µM (≈ 124 µg/mL) in the experiment on Staphylococcus aureus (MTCC 3160, 24 h). Further, the MIC in the experiment on Bacillus subtilis (MTCC 121, 24 h) was 120 µM (≈ 31 µg/mL); with Pichia kudriavzevii (MTCC 231, 24 h) it was 970 µM (≈ 251 µg/mL); with Aspergillus sydowii (MTCC 4335, 120 h), 1930 µM (≈ 499 µg/mL); in the experiment with Klebsiella pneumoniae (MTCC 109, 24 h) it was 970 µM (≈ 251 µg/mL); in the experiment on Candida albicans (MTCC 3017, 24 h), 970 µM (≈ 251 µg/mL); with Micrococcus luteus (MTCC 2470, 24 h), 970 µM (≈ 251 µg/mL). Further, in the experiment with Escherichia coli (MTCC 43, 24 h), the minimum inhibitory concentration (MIC) came out at 970 µM (≈ 251 µg/mL). Moreover, the inhibition in experiment [1] turned out to be 3.91%. Further, in the experiment on Pseudomonas aeruginosa, the MIC entry was “inactive”.

`C(=C\c1ccc2c(c1)OCO2)/C=N/c1ccccc1`: the minimal inhibitory concentration (MIC) came to 1990 µM (≈ 500 µg/mL) in the experiment with Aspergillus parasiticus (MTCC 2797, 120 h); 990 µM (≈ 249 µg/mL) in the experiment on Enterobacter cloacae (MTCC 509, 24 h); 990 µM (≈ 249 µg/mL) with Aspergillus niger (MTCC 404, 120 h); 490 µM (≈ 123 µg/mL) in the experiment with Burkholderia cepacia (MTCC 438, 24 h); 990 µM (≈ 249 µg/mL) in the experiment on Trichophyton rubrum (MTCC 296, 120 h); 1990 µM (≈ 500 µg/mL) in the experiment on Staphylococcus aureus (MTCC 3160, 24 h). Further, the MIC turned out to be 1990 µM (≈ 500 µg/mL) in the experiment with Bacillus subtilis (MTCC 121, 24 h); 490 µM (≈ 123 µg/mL) in the experiment with Pichia kudriavzevii (MTCC 231, 24 h); 1990 µM (≈ 500 µg/mL) in the experiment with Aspergillus sydowii (MTCC 4335, 120 h); 990 µM (≈ 249 µg/mL) with Klebsiella pneumoniae (MTCC 109, 24 h); 990 µM (≈ 249 µg/mL) in the experiment with Candida albicans (MTCC 3017, 24 h); 990 µM (≈ 249 µg/mL) in the experiment on Micrococcus luteus (MTCC 2470, 24 h). Moreover, the MIC in the experiment on Escherichia coli (MTCC 43, 24 h) is 1990 µM (≈ 500 µg/mL); with Pseudomonas aeruginosa (MTCC 424, 24 h), 250 µM (≈ 62.8 µg/mL). Also, the inhibition in [1] is 25.8%.

On to `CC(=O)c1ccc(/N=C/C=C/c2ccc3c(c2)OCO3)cc1`, for which the minimal inhibitory concentration (MIC) in the experiment on Aspergillus parasiticus (MTCC 2797, 120 h) turned out to be 1700 µM (≈ 499 µg/mL); with Aspergillus niger (MTCC 404, 120 h), 1700 µM (≈ 499 µg/mL); in the experiment on Burkholderia cepacia (MTCC 438, 24 h), 1700 µM (≈ 499 µg/mL); in the experiment with Trichophyton rubrum (MTCC 296, 120 h), 1700 µM (≈ 499 µg/mL); in the experiment on Staphylococcus aureus (MTCC 3160, 24 h) it was 850 µM (≈ 249 µg/mL); in the experiment on Bacillus subtilis (MTCC 121, 24 h) it was 850 µM (≈ 249 µg/mL). Further, the MIC came to 1700 µM (≈ 499 µg/mL) in the experiment on Pichia kudriavzevii (MTCC 231, 24 h); 850 µM (≈ 249 µg/mL) with Aspergillus sydowii (MTCC 4335, 120 h); 1700 µM (≈ 499 µg/mL) with Candida albicans (MTCC 3017, 24 h); 850 µM (≈ 249 µg/mL) in the experiment on Micrococcus luteus (MTCC 2470, 24 h). Also, the MIC result with Enterobacter cloacae, with Klebsiella pneumoniae, in the experiment on Escherichia coli and with Pseudomonas aeruginosa was “inactive” in each case. Also, the inhibition in experiment [1] is 4.49%.

`Clc1ccc2nc(/N=C/C=C/c3ccc4c(c3)OCO4)sc2c1`: the MIC result with Aspergillus parasiticus, with Enterobacter cloacae, in the experiment with Aspergillus niger, in the experiment with Aspergillus sydowii, in the experiment on Klebsiella pneumoniae and in the experiment on Escherichia coli was “inactive” each time. For the same molecule, the MIC entry in the experiment with Pseudomonas aeruginosa was “inactive”. The inhibition in experiment [1] came out at 80.7%. The MIC in the experiment with Burkholderia cepacia (MTCC 438, 24 h) was 730 µM (≈ 250 µg/mL); in the experiment with Trichophyton rubrum (MTCC 296, 120 h) it was 730 µM (≈ 250 µg/mL); in the experiment on Staphylococcus aureus (MTCC 3160, 24 h) it was 730 µM (≈ 250 µg/mL); in the experiment with Bacillus subtilis (MTCC 121, 24 h) it was 730 µM (≈ 250 µg/mL); in the experiment with Pichia kudriavzevii (MTCC 231, 24 h), 730 µM (≈ 250 µg/mL); in the experiment on Candida albicans (MTCC 3017, 24 h), 730 µM (≈ 250 µg/mL). Besides, the MIC in the experiment with Micrococcus luteus (MTCC 2470, 24 h) was 730 µM (≈ 250 µg/mL).

For the molecule `C(=C\c1ccc2c(c1)OCO2)/C=N/c1nc2ccccc2s1`, the MIC entry in the experiment with Aspergillus parasiticus, in the experiment with Aspergillus niger and in the experiment with Aspergillus sydowii was “inactive” each time. In addition, the MIC came out at 810 µM (≈ 250 µg/mL) in the experiment on Enterobacter cloacae (MTCC 509, 24 h); 810 µM (≈ 250 µg/mL) with Burkholderia cepacia (MTCC 438, 24 h); 810 µM (≈ 250 µg/mL) in the experiment with Trichophyton rubrum (MTCC 296, 120 h); 200 µM (≈ 61.7 µg/mL) with Staphylococcus aureus (MTCC 3160, 24 h); 400 µM (≈ 123 µg/mL) with Bacillus subtilis (MTCC 121, 24 h); 1620 µM (≈ 500 µg/mL) with Pichia kudriavzevii (MTCC 231, 24 h). Further, the MIC is 810 µM (≈ 250 µg/mL) in the experiment on Klebsiella pneumoniae (MTCC 109, 24 h); 810 µM (≈ 250 µg/mL) with Candida albicans (MTCC 3017, 24 h); 200 µM (≈ 61.7 µg/mL) in the experiment on Micrococcus luteus (MTCC 2470, 24 h); 810 µM (≈ 250 µg/mL) in the experiment with Escherichia coli (MTCC 43, 24 h); 810 µM (≈ 250 µg/mL) in the experiment with Pseudomonas aeruginosa (MTCC 424, 24 h). In addition, the inhibition in experiment [1] came to 3.55%.

`Cc1ccc2nc(/N=C/C=C/c3ccc4c(c3)OCO4)sc2c1`: the MIC entry in the experiment on Aspergillus parasiticus, with Aspergillus niger, in the experiment with Aspergillus sydowii, with Klebsiella pneumoniae, in the experiment with Escherichia coli and in the experiment on Pseudomonas aeruginosa was “inactive” in each case. In addition, the MIC with Enterobacter cloacae (MTCC 509, 24 h) was 770 µM (≈ 248 µg/mL); in the experiment on Burkholderia cepacia (MTCC 438, 24 h), 770 µM (≈ 248 µg/mL); with Trichophyton rubrum (MTCC 296, 120 h) it was 770 µM (≈ 248 µg/mL); with Staphylococcus aureus (MTCC 3160, 24 h) it was 380 µM (≈ 123 µg/mL); in the experiment with Bacillus subtilis (MTCC 121, 24 h) it was 770 µM (≈ 248 µg/mL); with Pichia kudriavzevii (MTCC 231, 24 h), 770 µM (≈ 248 µg/mL). Further, the MIC in the experiment on Candida albicans (MTCC 3017, 24 h) turned out to be 770 µM (≈ 248 µg/mL); with Micrococcus luteus (MTCC 2470, 24 h), 770 µM (≈ 248 µg/mL). Also, the inhibition in [1] stood at 3.19%.

Consider `NC(=O)N/N=C/C=C/c1ccc2c(c1)OCO2`, for which the MIC result in the experiment with Aspergillus parasiticus, in the experiment on Enterobacter cloacae, with Aspergillus niger, in the experiment with Burkholderia cepacia, with Staphylococcus aureus and in the experiment with Bacillus subtilis was “inactive” in each case. Besides, the MIC result in the experiment on Aspergillus sydowii, in the experiment on Klebsiella pneumoniae, with Micrococcus luteus, with Escherichia coli and in the experiment with Pseudomonas aeruginosa was “inactive” in each case. In [1], the inhibition came out at 2.37%. For the same molecule, the MIC with Trichophyton rubrum (MTCC 296, 120 h) came out at 8570 µM (≈ 2000 µg/mL); with Pichia kudriavzevii (MTCC 231, 24 h) it was 8570 µM (≈ 2000 µg/mL); in the experiment on Candida albicans (MTCC 3017, 24 h), 8570 µM (≈ 2000 µg/mL).

With `NC(=S)N/N=C/C=C/c1ccc2c(c1)OCO2`, the MIC entry in the experiment with Aspergillus parasiticus, in the experiment on Enterobacter cloacae, with Aspergillus niger, with Burkholderia cepacia, with Trichophyton rubrum and in the experiment on Staphylococcus aureus was “inactive” each time. The MIC result in the experiment with Bacillus subtilis, in the experiment with Pichia kudriavzevii, with Aspergillus sydowii, in the experiment with Klebsiella pneumoniae, in the experiment on Candida albicans and in the experiment with Micrococcus luteus was “inactive” in each case. Further, the MIC entry in the experiment with Escherichia coli and in the experiment on Pseudomonas aeruginosa was “inactive” in each case. Further, the inhibition in experiment [1] turned out to be 10.7%.

For the origin of these results see ChEMBL document CHEMBL3046948, “Synthesis and SAR investigation of natural phenylpropene-derived methoxylated cinnamaldehydes and their novel Schiff bases as potent antimicrobial and antioxidant agents” (2013).
